Laboratory results reported in ChEMBL document CHEMBL1201862, “PubChem BioAssay data set” (2004).
Activity calls are given as the source filed them. Cut-off read from the data, not from the text of the source, for most assays here: actives have a measured EC50 and inactives only a lower limit.

Experiments:
[1] = Luminescence Cell-Based Dose Response HTS to Identify Inhibitors of Luciferase Translation or Activity in H4-C Neuroglioblastoma Cells. [Related pubchem assays: 1813 (Primary HTS), 1827 (Project Summary)]; format: functional
[2] = Luminescence Cell-Based Dose Response HTS to Identify Activators of Luciferase Translation or Activity in H4-C Neuroglioblastoma Cells. [Related pubchem assays: 1829 (Project Summary), 1814 (Primary HTS)]; format: functional
[3] = inhibitors of firefly luciferase expression or activity, dose response, H4 neuroglioma cells, luminescence (AID 1990); format: functional, cell-based
[4] = luciferase reporter signal reduction – luminescence, H4-C neuroglioblastoma cells, dose response (AID 2458); format: functional, cell-based;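 note: H4 neuroglioblastoma cells stably carrying a luciferase reporter gene fusion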
[5] = Luminescence Cell-Based Dose Retest to Confirm Activators of 5'UTR Stem-Loop Driven Alpha-Synuclein mRNA Translation in H4 Neuroglioblastoma Cells. [Related pubchem assays (depositor defined):AID1813, AID1829]; format: functional
[6] = Luminescence Cell-Based Dose Response HTS to Identify Activators of 5'UTR Stem-Loop Driven Prion Protein mRNA Translation in H4-C Neuroglioblastoma Cells. [Related pubchem assays: 1829 (Project Summary), 1814 (Primary HTS)]; format: functional
[7] = Luminescence Cell-Based Dose HTS Response to Identify Inhibitors of 5'UTR Stem-Loop Driven Prion Protein mRNA Translation in H4-C Neuroglioblastoma Cells. [Related pubchem assays (depositor defined):AID1814, AID1827]; format: functional
[8] = test system: BJ; assay: cytotoxicity toward BJ-TERT fibroblasts, dose response, cell-based, RAS-independent, luminescence (AID 1933); format: functional; details: Homo sapiens
[9] = cells; format: functional, cell-based
[10] = inhibitors of SNCA 5'UTR-driven reporter translation, confirmation, H4 neuroglioma cells, luminescence (AID 1988); format: functional, cell-based
[11] = test system: BJ; assay: cells; format: functional, cell-based; details: Homo sapiens
[12] = Luminescence Cell-Based Dose Confirmation HTS to Identify Inhibitors of 5'UTR Stem-Loop Driven Alpha-Synuclein mRNA Translation in H4 Neuroglioblastoma Cells. [Related pubchem assays: 1827 (Project Summary), 1813 (Primary HTS)]; format: functional
[13] = test system: BJ; assay: cytotoxicity toward BJ-TERT-LT-ST fibroblasts, dose response, cell-based, RAS-independent, luminescence (AID 1935); format: functional; details: Homo sapiens;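 note: BJ fibroblasts immortalized with TERT plus LT and ST oncogenes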
[14] = cytotoxicity toward DRD oncogenic fibroblasts, dose response, cell-based, non-viral oncogenic, luminescence (AID 1934); format: functional; details: Homo sapiens
[15] = inhibitors of SNCA 5'UTR-driven translation, confirmation, luminescence, H4 neuroglioblastoma cells, dose confirmation (AID 2454); format: functional, cell-based;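 note: H4 neuroglioblastoma cells carrying an alpha-synuclein 5'UTR luciferase reporter; potency for inhibition of the luciferase signal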
[16] = biological target: Voltage-dependent T-type calcium channel subunit alpha-1H (Homo sapiens, UniProt O95180); assay: Cav3.2 T-type channel inhibitors, cell-based, synthetic library set 1, calcium flux (AID 493022); format: functional
Chain of Voltage-dependent T-type calcium channel subunit alpha-1H (O95180 whole entry): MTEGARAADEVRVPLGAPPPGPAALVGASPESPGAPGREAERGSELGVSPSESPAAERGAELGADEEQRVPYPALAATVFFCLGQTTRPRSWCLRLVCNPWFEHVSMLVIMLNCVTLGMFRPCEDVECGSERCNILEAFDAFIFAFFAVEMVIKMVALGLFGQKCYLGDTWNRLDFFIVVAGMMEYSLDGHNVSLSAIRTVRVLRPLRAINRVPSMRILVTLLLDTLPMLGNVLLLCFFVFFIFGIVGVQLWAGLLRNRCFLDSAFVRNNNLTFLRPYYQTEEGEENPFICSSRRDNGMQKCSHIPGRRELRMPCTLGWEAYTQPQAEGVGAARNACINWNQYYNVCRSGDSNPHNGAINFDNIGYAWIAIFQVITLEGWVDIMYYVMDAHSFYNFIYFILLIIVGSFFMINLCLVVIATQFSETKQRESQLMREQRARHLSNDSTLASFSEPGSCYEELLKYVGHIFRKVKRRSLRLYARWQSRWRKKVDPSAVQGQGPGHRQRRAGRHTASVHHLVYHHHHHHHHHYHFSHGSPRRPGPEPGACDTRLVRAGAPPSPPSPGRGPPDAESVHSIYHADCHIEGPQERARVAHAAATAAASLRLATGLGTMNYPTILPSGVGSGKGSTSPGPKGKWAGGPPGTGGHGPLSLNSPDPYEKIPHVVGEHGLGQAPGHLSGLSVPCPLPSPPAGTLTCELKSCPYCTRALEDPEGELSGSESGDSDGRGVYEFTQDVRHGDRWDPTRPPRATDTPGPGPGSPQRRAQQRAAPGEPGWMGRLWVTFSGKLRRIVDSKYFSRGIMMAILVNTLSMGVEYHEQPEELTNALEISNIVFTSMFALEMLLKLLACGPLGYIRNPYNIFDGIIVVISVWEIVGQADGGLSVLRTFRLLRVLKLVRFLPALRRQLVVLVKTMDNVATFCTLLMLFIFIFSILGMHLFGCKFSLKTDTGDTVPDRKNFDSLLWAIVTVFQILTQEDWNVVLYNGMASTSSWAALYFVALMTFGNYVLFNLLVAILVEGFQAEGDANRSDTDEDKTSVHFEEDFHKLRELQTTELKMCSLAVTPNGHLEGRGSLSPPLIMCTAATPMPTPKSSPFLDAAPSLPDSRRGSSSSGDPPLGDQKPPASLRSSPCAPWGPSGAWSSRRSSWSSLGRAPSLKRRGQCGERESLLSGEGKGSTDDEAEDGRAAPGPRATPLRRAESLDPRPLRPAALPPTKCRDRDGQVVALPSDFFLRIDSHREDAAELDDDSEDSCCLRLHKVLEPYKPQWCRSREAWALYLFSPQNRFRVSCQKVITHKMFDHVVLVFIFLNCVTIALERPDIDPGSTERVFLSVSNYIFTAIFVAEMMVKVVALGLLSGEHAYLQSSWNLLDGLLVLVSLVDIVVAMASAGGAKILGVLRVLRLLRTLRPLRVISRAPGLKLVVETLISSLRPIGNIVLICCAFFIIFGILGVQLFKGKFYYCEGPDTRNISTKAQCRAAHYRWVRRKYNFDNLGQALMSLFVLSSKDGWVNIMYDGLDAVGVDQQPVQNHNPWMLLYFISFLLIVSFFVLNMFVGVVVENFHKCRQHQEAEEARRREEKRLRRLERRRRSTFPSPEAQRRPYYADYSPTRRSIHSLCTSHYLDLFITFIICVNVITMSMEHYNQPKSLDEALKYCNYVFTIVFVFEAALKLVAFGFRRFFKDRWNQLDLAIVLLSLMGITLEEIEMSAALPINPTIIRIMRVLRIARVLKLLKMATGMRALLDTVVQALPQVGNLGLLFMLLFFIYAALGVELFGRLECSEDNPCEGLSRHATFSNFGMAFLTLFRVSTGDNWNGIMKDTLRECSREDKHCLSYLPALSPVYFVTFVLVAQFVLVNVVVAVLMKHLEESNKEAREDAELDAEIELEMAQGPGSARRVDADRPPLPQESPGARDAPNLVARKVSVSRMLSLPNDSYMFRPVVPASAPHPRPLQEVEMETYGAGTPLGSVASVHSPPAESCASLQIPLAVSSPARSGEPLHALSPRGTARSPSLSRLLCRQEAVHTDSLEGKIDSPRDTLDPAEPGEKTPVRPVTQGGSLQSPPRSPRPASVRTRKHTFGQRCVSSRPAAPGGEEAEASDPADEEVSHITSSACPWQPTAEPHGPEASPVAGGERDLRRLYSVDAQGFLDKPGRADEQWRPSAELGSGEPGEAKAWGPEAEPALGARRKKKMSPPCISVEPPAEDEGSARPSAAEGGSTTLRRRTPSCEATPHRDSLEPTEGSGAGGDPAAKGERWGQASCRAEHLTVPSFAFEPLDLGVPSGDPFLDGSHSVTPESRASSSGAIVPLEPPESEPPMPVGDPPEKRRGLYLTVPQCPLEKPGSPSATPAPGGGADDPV

[17] = cytotoxicity in NIH/3T3 mouse fibroblasts, dose response, cytotoxicity control, cell-based, mouse embryonic fibroblasts, dry powder, set 2 (AID 493247); format: functional; details: Fibroblast
[18] = test system: Trypanosoma cruzi; assay: growth inhibition of intracellular Trypanosoma cruzi, dose response, cell-based, plate reader, dry powder, set 3 (AID 493197); format: functional
[19] = Luminescence Cell-Based Dose Confirmation HTS to Identify Activators of 5'UTR Stem-Loop Driven Alpha-Synuclein mRNA Translation in H4 Neuroglioblastoma Cells. [Related pubchem assays: 1829 (Project Summary), 1814 (Primary HTS)]; format: functional
[20] = Luminescence Cell-Based Dose Response HTS to Identify Activators of Luciferase Translation or Activity in H4 […] Cells. [Related pubchem assays: 1829 (Project Summary), 1814 (Primary HTS)]; format: functional
[21] = test system: H4; assay: Luminescence Cell-Based Dose Response HTS to Identify Activators of 5'UTR Stem-Loop Driven Prion Protein mRNA Translation in H4 Neuroglioblastoma Cells. [Related pubchem assays: 1829 (Project Summary), 1814 (Primary HTS)]; format: functional; details: Homo sapiens
[22] = test system: T-cell; assay: inhibitors of CD8+ T cell–vesicle binding, dose response, mouse 2C CD8+ T cells, flow cytometry (AID 485284); format: functional
[23] = biological target: T1, Coagulation factor XII (Homo sapiens, UniProt P00748); assay: FXIIa inhibitor potency, concentration-response, biochemical (AID 716); format: functional
T1 sequence (P00748 whole entry): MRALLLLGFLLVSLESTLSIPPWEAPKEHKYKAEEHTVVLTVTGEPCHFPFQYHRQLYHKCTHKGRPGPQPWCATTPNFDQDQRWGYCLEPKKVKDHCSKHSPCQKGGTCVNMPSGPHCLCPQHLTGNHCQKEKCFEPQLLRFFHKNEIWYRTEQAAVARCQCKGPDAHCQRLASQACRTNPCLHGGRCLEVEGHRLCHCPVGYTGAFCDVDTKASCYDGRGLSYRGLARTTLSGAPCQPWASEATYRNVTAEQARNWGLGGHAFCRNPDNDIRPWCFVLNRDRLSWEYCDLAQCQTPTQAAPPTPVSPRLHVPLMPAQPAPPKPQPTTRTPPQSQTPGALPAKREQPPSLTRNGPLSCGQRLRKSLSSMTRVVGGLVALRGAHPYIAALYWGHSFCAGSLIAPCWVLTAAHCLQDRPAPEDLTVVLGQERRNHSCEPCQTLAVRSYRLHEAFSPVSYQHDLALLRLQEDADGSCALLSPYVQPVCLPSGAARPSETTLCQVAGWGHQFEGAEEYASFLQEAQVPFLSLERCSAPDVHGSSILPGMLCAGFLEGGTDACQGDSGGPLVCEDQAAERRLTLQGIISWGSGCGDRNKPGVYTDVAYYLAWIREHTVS

Q: Which EC50 [1] does the source give for `O=C(c1ccc(C[S+]([O-])c2ccccc2Cl)o1)N1CCN(c2ccccc2)CC1` (stereo not drawn) here?
A: 1460 nM (active)

Q: And the EC50 [2]?
A: 1460 nM (inconclusive)

Q: What about the EC50 [3] of the same molecule?
A: 8010 nM (active)

Q: And the EC50 [4]?
A: 1160 nM (active)

Q: And the EC50 [5]?
A: 811 nM (inconclusive)

Q: And the EC50 [6]?
A: 464 nM (inconclusive)

Q: And the EC50 [7]?
A: 464 nM (active)

Q: And the EC50 [8]?
A: 1180 nM (active)

Q: What about the EC50 [9] of the same molecule?
A: > 12000 nM (not active)

Q: And the EC50 [10]?
A: < 100 nM (active)

Q: And the EC50 [11]?
A: 25900 nM (active)

Q: And the EC50 [12]?
A: 811 nM (active)

Q: What about the EC50 [13] of the same molecule?
A: 1220 nM (active)

Q: What about the EC50 [14] of the same molecule?
A: 614 nM (active)

Q: What about the EC50 [15] of the same molecule?
A: 2830 nM (active)

Q: With `O=C(COc1ccc(Cl)cc1)Nc1nnc(-c2ccc(F)c(F)c2)o1` as the molecule, how does the EC50 [16] read?
A: 1500 nM (active)

Q: For `CN(Cc1ccccc1)C(=O)C1CCCN(Cc2ccc(Br)cc2)C1` (stereo not drawn), which AC50 [17] is on record?
A: 74300 nM (active)

Q: What about the AC50 [18] of the same molecule?
A: 3010 nM (active)

Q: Which EC50 [19] does the source give for `O=C(CC1=NCCNC(c2ccccc2)C1)c1ccccc1O` (stereo not drawn) here?
A: 69300 nM (active)

Q: And the EC50 [20]?
A: 43100 nM (active)

Q: What about the EC50 [21] of the same molecule?
A: 67600 nM (active)

Q: And the EC50 [22]?
A: 565 nM (active)

Q: Which IC50 [23] does the source give for `O=C(CN1C(=O)c2ccccc2S1(=O)=O)N1CCN(c2ccccc2F)CC1` here?
A: > 50000 nM (inactive)
